Read-outs that look alike come from different tables or passages of the source. No end group written: not given here.

The values that follow come from article PMC9780326, “Venom composition and pain-causing toxins of the Australian great carpenter bee Xylocopa aruana” (Scientific Reports, 2022).

The subject of test [1] is mice. Type of test: in vivo, male C57BL/6J mice.
Test [2] has as its system mice. The format is in vivo, male C57BL/6J mice. Conditions: for pain behaviours on co-injection with venom PLA2: 200 pmol + venom PLA2 (20 pmol); for spontaneous pain behaviours: 200 pmol alone, 20 µL.
The subject of test [3] is Shaker-like voltage-gated potassium (KV) channel KV1.1. The conditions noted are these: cited from earlier work.
Test [4] relates to Shaker-like voltage-gated potassium (KV) channel KV1.2. Conditions: cited from earlier work.
Test [5] deals with HEK293AD cells. As to the kind of experiment: Whole-cell patch-clamp, leak current in HEK293AD cells (QPatch 16X). Type of test: cell-based. The procedure: The mature peptide of XYTX1-Xa1a shares a similar primary structure with Xac-1, Xac-2 and melectin. […] We hypothesised that XYTX1-Xa1a would share the same activity. We tested, by whole-cell patch-clamp electrophysiology, the capacity of XYTX1-Xa1a to directly induce leak currents in cell membranes. For these experiments we used HEK293AD cells, which lack appreciable expression of the ion channels found in neurons. At 4 min after application of XYTX1-Xa1a (30 μM) we recorded leak currents at test potentials ranging from − 60 to + 60 mV in 10-mV increments from a holding potential of 0 mV every 6 s. At + 60 mV, we recorded currents of 3.3 ± 0.6 nA (mean ± SEM, n = 6 cells) compared with 0.08 ± 0.02 nA (n = 5 cells) for time-matched negative controls (application of extracellular solution (ECS)) (Fig. 3a–c).
(a) Representative current traces in HEK293AD cells at voltages of − 60 to + 60 mV (10 mV steps) acquired before application and 2 min after application of (a) extracellular solution (ECS) or (b) 30 μM XYTX1-Xa1a. […] Data are expressed as mean ± SEM (n = 5–6 cells) and fitted to a simple linear regression. […]
HEK293AD cells (American Type Culture Collection) were cultured as previously described. […] From a holding potential of 0 mV each recorded cell was subjected to a series of 50-ms voltage pulses that ranged from − 60 to + 60 mV in 10-mV increments. […]
In general terms: The patch-clamp technique gives a direct electrical read-out from membranes.

For test [6] the following is noted: cited from earlier work. From the text: By far the most studied bee venom is that of the Western honeybee Apis mellifera. Its venom is dominated by a 26-residue cysteine-free amphipathic peptide known as melittin which makes up 40–60% of the dry weight of the venom. Another major components is venom phospholipase-A2 (PLA2; 10–12% dry weight), with smaller amounts of histamine (5–10%), venom hyaluronidase (1–2%) and the small disulfide-rich peptides apamin (3%) and mast cell-degranulating (MCD)-peptide (2%)[4]. Other reported components are present in trace amounts.

The test system of test [7] is F11 cells. Type of test: cell-based, mouse neuroblastoma × rat DRG cell line. Conditions: FLIPR, Calcium 4; peptide in PSS + 0.1% BSA, 300 s; mean ± SEM, n = 6; read-out: EC50, increase of [Ca2+]i in F11 cells. The procedure: F11 (mouse neuroblastoma × DRG neuron hybrid; European Collection of Authenticated Cell Cultures) were cultured as previously described. Cells were maintained on Ham’s F12 media supplemented with 10% FBS, 100 µM hypoxanthine, 0.4 µM aminopterin, and 16 µM thymidine (Hybri-Max, Sigma Aldrich). 384-well imaging plates (Corning, Lowell, MA, USA) were seeded 24 h prior to calcium imaging, resulting in ~ 90% confluence at the time of imaging. Cells were loaded for 30 min at 37 °C with Calcium 4 assay component A in physiological salt solution (PSS; 140 mM NaCl, 11.5 mM D-glucose, 5.9 mM KCl, 1.4 mM MgCl2, 1.2 mM NaH2PO4, 5 mM NaHCO3, 1.8 mM CaCl2, 10 mM HEPES) according to the manufacturer’s instructions (Molecular Devices, Sunnyvale, CA). Ca^2+ responses were measured using a FLIPR^TETRA fluorescent plate reader equipped with a CCD camera (Ex: 470 to 490 nm, Em: […]) (Molecular Devices, Sunnyvale, CA). Signals were read every second for 10 s before, and 300 s after, the addition of peptide (in PSS supplemented with 0.1% BSA).
Data were plotted and analysed using Prism v9.0.0 (GraphPad Software, San Diego, CA, USA). For calcium imaging experiments of mouse DRG neurons and F11 cells, treatment groups were compared using unpaired t-tests. […]

Test [8] relates to mice. As to the kind of experiment: Paw swelling (paw thickness) after intraplantar injection. The conditions noted are these: 200 pmol + venom PLA2 (20 pmol). The format is in vivo, male C57BL/6J mice.
Test [9] deals with mammalian small conductance calcium-activated potassium (KCa, SK) channel KCa2.2. Conditions: cited from earlier work. From the text:
XYTX2-Xa2a is similar in sequence to Bombus and Apis MCD-peptides and apamin. Apamin is a blocker of the mammalian small conductance calcium-activated potassium (KCa, SK) channel KCa2.2[20], while Apis MCD peptide is a blocker of Shaker-like voltage-gated potassium (KV) channels KV1.1 and KV1.2[21]. We hypothesised that XYTX2-Xa2a might share similar activity. Thus, we tested XYTX2-Xa2a for activity on human KV1.1, KV1.2, KV1.3, KCa2.1 and KCa2.2.

For test [10], the system named is mouse dorsal root ganglion (DRG) cells. Description: Calcium imaging assay of mouse DRG neurons. Type of test: cell-based. The procedure: Figure 5 Pain-causing effects of X. aruana venom components. (a,b) Application of XYTX1-Xa1a (10 μM) to DRG cells produced an immediate and sustained, non-cell-specific increase in [Ca^2+]i. (c) Potency of XYTX1-Xa1a and melittin in F11 cells, as monitored by changes in [Ca^2+]i. (d–f) The increase in [Ca^2+]i caused by XYTX1-Xa1a was potentiated by the presence of venom PLA2 (1 µM), but not XYTX2-Xa2a (1 μM). **P < 0.01 (unpaired t-test). […] Data are expressed as mean ± SEM (n = 3–6). […] Data are expressed as mean ± SEM (n = 3–6). *P < 0.05; **P < 0.01; ****P < 0.0001 (one way-ANOVA with Tukey’s multiple comparisons).
DRG cells were isolated from 4- to 6-week-old-male C57BL/6 mice that were purchased from the Animal Resources Centre (WA, Australia). DRGs were dissociated, then cells were plated in Dulbecco’s Modified Eagle’s Medium (DMEM; Gibco, MD, USA) containing 10% fetal bovine serum (FBS) (Assaymatrix, VIC, Australia) and penicillin/streptomycin (Gibco) on a 96-well poly-D-lysine-coated culture plate (Corning, ME, USA) and maintained overnight. Cells were loaded with Fluo-4 AM calcium indicator, according to the manufacturer’s instructions (ThermoFisher Scientific, MA, USA). After loading (1 h), the dye-containing solution was replaced with assay solution (1× Hanks’ balanced salt solution, 20 mM HEPES). Images were acquired at 10× objective at 1 frame/s (excitation 485 nm, emission 521 nm). Fluorescence corresponding to [Ca^2+]i of ~ 250 cells per experiment was monitored in parallel using an Nikon Ti-E Deconvolution inverted microscope, equipped with a Lumencor Spectra LED Lightsource. Baseline fluorescence was monitored for 30 s. At 30 s, assay solution was replaced with either assay solution, or assay solution containing venom PLA2 (1 µM) or XYTX2-Xa2a (1 µM), then at 1 min with XYTX1-Xa1a (in assay solution ± venom PLA2 (1 µM) or XYTX2-Xa2a (1 µM)) and monitored for 2 min before being replaced with assay solution and then KCl (30 mM; positive control). Experiments involving the use of mouse tissue were approved by the University of Queensland Animal Ethics Committee (UQ AEC; approval number TRI/IMB/093/17).
Data were plotted and analysed using Prism v9.0.0 (GraphPad Software, San Diego, CA, USA). For calcium imaging experiments of mouse DRG neurons and F11 cells, treatment groups were compared using unpaired t-tests. For analysis of spontaneous pain, sum of pain behaviour counts at 30 min of treatment groups were compared using one-way ANOVA with Tukey’s multiple comparisons test. Statistical significance was defined as P < 0.05. All data are presented as mean ± SEM.

Regarding “MCD-peptide: mast cell-degranulating (MCD)-peptide of A. mellifera (Uniprot: P01499), purchased from Alomone labs (IKCNCKRHVIKPHICRKICGKN; UniProt P01499 28-49, looked up)”, the “paw-withdrawal threshold to a mechanical stimulus versus negative control (saline)” value in [1] (mouse, in vivo) is “no difference to negative control (saline) injection”. The “pain behaviour counts versus control” value in test [2] (mouse, in vivo) is reported as “not different to control”. Also, the “block of KV1.1” value in test [3] was “blocker”. For the same compound, the “block of KV1.2” value in test [4] is “blocker”.

Take `CC[C@H](C)[C@H](NC(=O)CN)C(=O)NCC(=O)N[C@@H](C)C(=O)N[C@H](C(=O)N[C@@H](CC(C)C)C(=O)N[C@@H](CCCCN)C(=O)N[C@H](C(=O)N[C@@H](CC(C)C)C(=O)N[C@H](C(=O)N[C@H](C(=O)NCC(=O)N[C@@H](CC(C)C)C(=O)N1CCC[C@H]1C(=O)N[C@@H](C)C(=O)N[C@@H](CC(C)C)C(=O)N[C@H](C(=O)N[C@@H](CO)C(=O)N[C@@H](Cc1c[nH]c2ccccc12)C(=O)N[C@H](C(=O)N[C@@H](CCCCN)C(=O)N[C@@H](CCCNC(=N)N)C(=O)N[C@@H](CCCCN)C(=O)N[C@@H](CCCNC(=N)N)C(=O)N[C@@H](CCC(N)=O)C(=O)N[C@@H](CCC(N)=O)C(N)=O)[C@@H](C)CC)[C@@H](C)CC)[C@@H](C)O)[C@@H](C)O)C(C)C)C(C)C` [melittin]: the “leak current in HEK293AD cells” value in test [5] (10 μM melittin, 2 min after addition, n = 5 cells, Fig. S4) is listed as “causes a leak current in HEK293AD cells”. Also, in test [2], the “pain behaviours on co-injection with venom PLA2” value is recorded as “potentiated by co-injection with 20 pmol venom PLA2”. Moreover, in test [2] (shallow intraplantar), the spontaneous pain behaviours result is “caused spontaneous pain behaviours”. In addition, in test [6], the pore formation entry is “can form pores in cell membranes”. Also, the EC50 in test [7] was 1.2 ± 0.1 µM. Moreover, in test [8], the paw swelling entry is “caused paw swelling”.

In the case of “apamin: A. mellifera apamin (Uniprot: P01500), purchased from Alomone labs (CNCKAPETALCARRCQQH; UniProt P01500 28-45, looked up)”, the “paw-withdrawal threshold to a mechanical stimulus versus negative control (saline)” value in test [1] (2 pmol/paw intraplantar, 1 and 4 h) is “no difference to negative control (saline) injection”. Further, the “pain behaviour counts versus control” value in test [2] (2 pmol alone, shallow intraplantar) is “not different to control”. Besides, in test [9], the “block of mammalian KCa2.2” value was “blocker”.

As for GFLSILKKLPLILKHLP-NH2 [XYTX1-Xa1a], in test [5] (30 μM, 4 min after application, holding potential 0 mV, mean ± SEM, n = 6 cells, negative control ECS 0.08 ± 0.02 nA (n = 5 cells)), the “leak current at + 60 mV” value is on record as 3.3 ± 0.6 nA. Further, the “pain behaviours on co-injection with venom PLA2” value in test [2] was “increased (frequency and duration)”. Besides, in [2] (shallow intraplantar), the spontaneous pain behaviours result is given as “caused spontaneous pain behaviours”. In addition, the EC50 in test [7] came to 5.2 ± 0.7 µM. Further, the “neurons with increase of [Ca2+]i” value in [10] (10 μM (Fig. 5 legend), alone, mean ± SEM) was 49.4 ± 3.2%. Moreover, the “neurons activated, in the presence of XYTX2-Xa2a” value in test [10] (with XYTX2-Xa2a (1 μM), mean ± SEM) stood at 45.8 ± 5.5%. The “cell lysis in the presence of venom PLA2” value in test [10] (with venom PLA2 (1 µM), leakage of dye into extracellular media) was “increased cell lysis”. The “neurons activated, in the presence of venom PLA2” value in test [10] (with venom PLA2 (1 µM), mean ± SEM) worked out at 93.2 ± 6.5%. For the same compound, the paw swelling entry in [8] is “caused paw swelling”.

Usually EC50 stands for the concentration that produces a half-maximal response.
